Entries after “also recorded” stand apart in the source; their conditions may differ.
Key:
caspase-3 = biological target: T1, caspase-3 (Homo sapiens, UniProt P42574); test: Ac-DEVD-PyTPE fluorescence turn-on assay with caspase-3 in PIPES buffer; format: biochemical
T1 sequence (P42574 29-175 limits assumed): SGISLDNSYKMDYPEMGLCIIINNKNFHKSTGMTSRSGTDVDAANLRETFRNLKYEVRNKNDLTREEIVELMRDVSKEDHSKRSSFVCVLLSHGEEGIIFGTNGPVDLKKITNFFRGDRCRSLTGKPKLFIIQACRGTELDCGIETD
T1 sequence (P42574 176-277 limits assumed): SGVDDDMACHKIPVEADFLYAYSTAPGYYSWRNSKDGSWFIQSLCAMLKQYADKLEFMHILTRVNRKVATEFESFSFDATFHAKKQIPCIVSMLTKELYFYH
Method: [caspase-3]=5 μg mL^−1, [Ac-DEVD-PyTPE]=10 μM.
(§1) Inset: photographs taken under UV illumination. λex=405 nm; λem=610 nm.
Particles with an average diameter of 92 nm formed in addition to the increase of fluorescence in the solution (FIG. 43a). […] The caspase-3/7 catalyzed hydrolysis of Ac-DEVD-PyTPE is shown in the reaction scheme below.
In the absence of caspase-3, nearly no change in fluorescence is observed, confirming that Ac-DEVD-PyTPE is specifically recognized and cleaved by caspase-3.
(§2) As shown, caspase-3 and caspase-7 display respectively about 43- and 36-fold higher changes in (I−I0)/I0 than the other four enzymes.

caspase-7 = biological target: T2, caspase-7 (Homo sapiens, UniProt P55210); test: Ac-DEVD-PyTPE fluorescence turn-on assay with caspase-7; format: biochemical; settings: caspase-7 vs pepsin, trypsin, papain, lysozyme; protein 20 μg mL^−1; λex 405 nm, λem 610 nm
T2 sequence (P55210 24-198 limits assumed): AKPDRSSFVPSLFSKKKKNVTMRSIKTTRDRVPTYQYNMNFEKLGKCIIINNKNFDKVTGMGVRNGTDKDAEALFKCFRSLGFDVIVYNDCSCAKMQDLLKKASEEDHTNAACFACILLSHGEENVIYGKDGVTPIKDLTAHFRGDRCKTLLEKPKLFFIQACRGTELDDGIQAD
T2 sequence (P55210 207-303 limits assumed): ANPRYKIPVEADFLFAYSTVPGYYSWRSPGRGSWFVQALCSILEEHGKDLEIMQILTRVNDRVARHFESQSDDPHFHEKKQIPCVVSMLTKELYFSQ
From the text: as §1, §2

[1] = Metabolic viability of MCF-7 cancer cells after incubation with probe; format: cell-based; settings: human, 5, 10 and 20 μM for 12, 24 and 48 h, read-out: cell viability
From the text: This is indicative of the low cytotoxicity of the Ac-DEVD-PyTPE probe.

[2] = tested on: caspase-3 activity in MCF-7 cells; test: CLSM imaging of caspase-3 activity / apoptosis in MCF-7 cells; format: cell-based
Method: FIGS. 46a-46c show normal MCF-7 cells treated with Ac-DEVD-PyTPE (5 μM, 1% DMSO) for 2 h.
FIGS. 46d-46f show apoptotic MCF-7 cells treated with Ac-DEVD-PyTPE (5 μM, 1% DMSO) and caspase-3 antibody. STS (3 μM) was used to induce cell apoptosis. Red=probe fluorescence; Green=immunofluorescence signal generated from anti-caspase-3 primary antibody and a FITC labeled secondary antibody.
All images were acquired in the same way.
Additionally, apoptotic MCF-7 cells were treated with both Ac-DEVD-PyTPE and commercial Annexin V-Alexa Fluor.

subcutaneous C6 tumor = test: In vivo and ex vivo fluorescence imaging of apoptosis in C6 tumor-bearing mice
Method: Only apoptotic tumors were clearly visualized.
Subcutaneous C6 tumor-bearing mice with and without intravenous injection of STS were imaged for 30 min using an IVIS spectrum imaging system. […] In contrast, the fluorescence signals from the tumor-bearing animals without treatment of STS and normal tissues are very weak. […] Additionally, the fluorescence changes in tumoral and normal tissues as a function of time for each experiment are shown in FIG. 50b. A 3-fold fluorescence enhancement of the apoptotic tumoral tissues relative to normal tissues is observed as early as 5 min after injection of Ac-DEVD-PyTPE, but only a slight fluorescence increase is observed over 15 min.
FIG. 50c show IVIS spectrum analysis of apoptotic and non-apoptotic tumors that were excised immediately after in vivo imaging.

HeLa cells = test: Photobleaching under continuous laser excitation in stained HeLa cells; format: cell-based; settings: continuous excitation 180 s, 0.6 mW; 405 nm for TPEPy-PF6, 588 nm for MitoTracker Red
MCF-7 cells = test: In situ screening of apoptosis inducers in MCF-7 cells with Ac-DEVD-PyTPE; format: cell-based; settings: 3 μM in DMSO, 2 h; compared with sodium ascorbate and cisplatin
Method: [Ac-DEVD-PyTPE]=3 μM. All images were acquired in the same way.
Three known apoptosis inducers, sodium ascorbate, cisplatin and STS, were used to treat MCF-7 cells. After the cells were incubated with Ac-DEVD-PyTPE for 2 h, each compound (3 μM in DMSO) was added into the chamber for an additional 2 h incubation. The apoptosis-inducing capabilities of these agents were evaluated by monitoring the cell fluorescence increase with a confocal microscopy.

C6 tumor = test: In vivo screening of apoptosis inducing agents in C6 tumor-bearing mice; settings: treated overnight, probe injected into tumor, 15 min; compared with DMSO, cisplatin, sodium ascorbate
Method: C6 tumor-bearing mice were treated with several compounds, namely DMSO, STS, cisplatin (CIS), and sodium ascorbate (Na asb), overnight, and Ac-DEVD-PyTPE was subsequently injected into the tumor directly. After 15 min incubation, the mice were imaged using an IVIS spectrum imaging system.

[3] = Fluorescent sensing of Hg2+ in aqueous buffer and in solid film
Method: I0=the emission intensity at 640 nm in absence of Hg^2+. Inset: photographs of TPEBe-I in aqueous buffer with [Hg^2+] of 0 and 2.0 mM taken under 365 nm UV illumination. Solution concentration: 20 μM; excitation wavelength: 480 nm.
Black bars represent the addition of different metal ion (2 mM) to solution of the TPEBe-I. Red bars represent the subsequent addition of 2 mM Hg^2+ to the solution. λex=480 nm. λem=640 nm.
Accordingly, in one embodiment, the present subject matter relates to the use of Hg^2+ to bind to iodine ions in TPEBe-I in order to restore the emission of the cationic luminogen. […] In addition, the spectrum slightly red-shifted with increasing concentration of Hg^2+. […] When the concentration of Hg^2+ is 2.0 mM, the emission intensity of TPEBe-I is enhanced 80-fold. Moreover, the emission color also changes from dark into bright red under 365 nm UV illumination. Accordingly, another embodiment of the present subject matter relates to the use of TPEBe-I luminogens as an “off-on” sensor for Hg^2+ in aqueous solution.
In addition, the present subject matter relates to using the TPEBe-I luminogen as a fluorescent sensor for Hg^2+.
This is likely due to protons combining with iodine ions, leading to a faint increase in emission. In contrast, under basic conditions (pH≧7), TPEBe-I in the absence of Hg^2+ is weakly emissive due to the quenching effect of the iodine ions. […] The emission intensity decreases at a pH greater than 8, but is still higher than the emission intensity of TPEBe-I in the absence of Hg^2+. […] The lower emission intensity of TPEBe-I under more basic conditions is attributed to the formation of Hg(OH)2, thereby reducing the amount of free Hg^2+. In addition, the hydroxyl group (OH) in basic conditions can destroy the structure of TPEBe-I, resulting in inactivation of its sensing ability.
In another embodiment, a solid-state fluorescent probe for the detection of Hg^2+ was developed using the TPEBe-I luminogen. […] As shown, the spots of film polluted by the aqueous solution containing Hg^2+ changed to a red color with varying degrees while the untreated surrounding areas show the initial dark color. This illustrates that the solid-state film of TPEBe-I has a very sensitive response to Hg^2+ in a pure aqueous solution. Therefore, one embodiment of the present subject matter relates to the use a TPEBe-I solid-state fluorescent probe for detecting and tracking the amount of Hg^2+ in an aqueous solution. In one embodiment, the detection amount can reach 1 μM ([…]).

Solubility = settings: for solubility in common organic solvents: THF, toluene, DCM, chloroform
[4] = Fluorescent sensing of ATP in aqueous solution with 1% DMSO
Method: I0=PL intensity at 620 nm in absence of ATP. Inset in B: plot of (I−I0)/I0 value versus concentration of ATP from 0 to 20 μM.
I0=photoluminescence intensity at 620 nm in absence of nucleotide. Inset: Photographs of TPBBe-I in aqueous solution with 1% DMSO with various nucleotides (600 μM) taken under 365 nm UV illumination.
When the concentration of ATP is 600 μM, the emission intensity of TPEBe-I increases 20-fold. Moreover, the emission color also changes from dark into bright red under 365 nm UV illumination (FIG. 53b). […] Obviously, the value of (I−I0)/I0 has a linear relationship with ATP from 0 to 20 μM.
The fluorescence response of TPEBe-I was carried out using ATP, ADP and AMP. […] Accordingly, one embodiment relates to the use of TPEBe-I as a highly sensitive and selective fluorescent sensor for ATP.

[5] = tested on: mitochondria of HeLa cells; test: Living HeLa cell staining and co-staining with MitoTracker Red; format: cell-based; settings: 15 min
Method: In a further embodiment, the present subject matter is directed to the use of the TPEPy-PF6 luminogen as a fluorescent stain for living cell imaging. Nanoaggregates of TPEPy-PF6 were prepared in minimum essential medium/DMSO mixtures and the HeLa cells were imaged using a standard cell-staining protocol. The living cells were incubated with TPEPy-PF6 (5 μM) for 15 min and then washed three times with phosphate buffered saline solution.
Living cells were incubated with both mitochondria-targeted dye MitoTracker Red (100 nM) and TPEPy-PF6 (5 μM) for 15 min at 37° C. by the above procedure. […] Therefore, one embodiment of the present subject matter relates to the use of the TPEPy-PF6 luminogen to exclusively stain the mitochondria of living cells.

[6] = excised immediately after in vivo imaging

## CC(=O)N[C@@H](CC(=O)O)C(=O)N[C@@H](CCC(=O)O)C(=O)N[C@H](C(=O)N[C@@H](CC(=O)O)C(=O)N[C@@H](Cc1cn(CCCC[n+]2ccc(/C=C/c3ccc(C(=C(c4ccccc4)c4ccccc4)c4ccccc4)cc3)cc2)nn1)C(N)=O)C(C)C [Ac-DEVD-PyTPE]
caspase-3; PIPES buffer pH 7.2, caspase-3 5 μg mL^−1, probe 10 μM
  fluorescence of the probe treated with caspase-3: strong fluorescence signals
caspase-3; caspase-3 vs pepsin, trypsin, papain, lysozyme, protein 20 μg mL^−1, λex 405 nm, λem 610 nm
  fold higher change in (I−I0)/I0 than the other four enzymes: about 43 fold
caspase-7
  fold higher change in (I−I0)/I0 than the other four enzymes: ~36 fold
[1]
  viability: ~100%
[2]; 5 μM, 1% DMSO, 2 h
  probe fluorescence in normal un-induced cells: extremely low fluorescence signal
[2]; probe 5 μM, STS 3 μM
  probe fluorescence in STS-induced apoptotic cells: strong fluorescence signals
Subcutaneous C6 tumor; STS pretreatment, 5 min after intratumoral injection of probe
  fluorescence enhancement of apoptotic tumoral tissues relative to normal tissues: 3 fold
Subcutaneous C6 tumor; [6]
  fluorescence of excised tumor/(+)STS tissues: high fluorescence signal
  fluorescence of excised tumor/(−)STS tissues: almost no fluorescence

## COC[C@@H]1CCCN1S(=O)(=O)c1ccc2c(c1)C(=O)C(=O)N2 [MPS, 5-[(S)-(+)-2-(methoxymethyl)pyrrolidino]sulfonylisatin, reference compound]
caspase-3; pre-treatment with inhibitor 10 μM, PIPES buffer
  inhibition of caspase-3 cleavage of Ac-DEVD-PyTPE (fluorescence): Most of the fluorescence was readily competed away
[2]; inhibitor 10 μM before incubation with Ac-DEVD-PyTPE
  probe fluorescence in STS-induced cells pre-treated with inhibitor: greatly reduced

## ClCc1ccc(C2=c3cc4c5c(c3Oc3c2cc2c6c3CCCN6CCC2)CCC[N+]=5CCC4)cc1.[Cl-] [MitoTracker Red, reference compound]
HeLa cells
  luminescence intensity remaining relative to initial value: about 20%

## CN[C@@H]1C[C@H]2O[C@@](C)([C@@H]1OC)n1c3ccccc3c3c4c(c5c6ccccc6n2c5c31)C(=O)NC4 [STS, staurosporine]
MCF-7 cells
  apoptosis-inducing capability (cell fluorescence increase): strongest fluorescence enhancement
C6 tumor
  efficacy of apoptosis inducing agent (tumor fluorescence): strongest fluorescence

## CC[n+]1c(/C=C/c2ccc(C(=C(c3ccccc3)c3ccccc3)c3ccccc3)cc2)sc2ccccc21 [TPEBe-ClO4]
[3]; Hg^2+ 0-2.0 mM, pH 7.4 HEPES, 1% DMSO
  emission intensity upon addition of Hg^2+: also increased
Solubility
  solubility in common organic solvents: soluble
  solubility in water: insoluble

## CC[n+]1c(/C=C/c2ccc(C(=C(c3ccccc3)c3ccccc3)c3ccccc3)cc2)sc2ccccc21 [TPEBe-I]
[3]; Hg^2+ 2.0 mM, luminogen 20 μM, pH 7.4 HEPES, 1% DMSO, λex 480 nm
  emission intensity enhancement: 80 fold
[3]; Zn, Ni, Co, Cd, Cu, Mn, Ca, Fe, Mg, Ag, Pd ions 2.0 mM
  emission change with other metal ions: negligible changes
[3]; solid-state film, aqueous Hg^2+ 5 μL
  detection amount of Hg^2+: 1 µM
[4]; ATP 600 μM, luminogen 20 μM, λex 480 nm
  emission intensity increase: 20 fold
[4]; other nucleotides, aqueous solution with 1% DMSO
  emission change with ADP and AMP: negligible changes
Solubility
  solubility in common organic solvents: soluble
  solubility in water: insoluble

## CC[n+]1c(/C=C/c2ccc(C(=C(c3ccccc3)c3ccccc3)c3ccccc3)cc2)sc2ccccc21 [TPEBe-PF6]
Solubility
  solubility in common organic solvents: soluble
  solubility in water: insoluble; also recorded: not soluble

## C[n+]1ccc(/C=C/c2ccc(C(=C(c3ccccc3)c3ccccc3)c3ccccc3)cc2)cc1 [TPEPy-PF6]
[5]; 5 μM with MitoTracker Red 100 nM, 37° C.
  mitochondria staining: position, shape and amounts compared with MitoTracker Red: the same as for MitoTracker Red
[5]; 5 μM
  toxicity to living cells (cell morphology): low toxicity
HeLa cells
  luminescence intensity remaining relative to initial value: ~70%
Solubility
  solubility in water: not soluble
